{"source": "patent US12383556B2", "about": "“Methods of treating Sjögren's syndrome using a Bruton's tyrosine kinase inhibitor” (NOVARTIS AG, priority 2019, dated 2025)", "key": {"BTK [1]": {"biological_target": "T1, BTK (Rattus norvegicus, UniProt Q5S255)", "T1 construct": "total BTK relative protein levels were determined in lysates of selected tissues; from tissue; host or cells: rat spleen, blood, lymph nodes, lung (lysates)", "T1 sequence (Q5S255 1-660)": "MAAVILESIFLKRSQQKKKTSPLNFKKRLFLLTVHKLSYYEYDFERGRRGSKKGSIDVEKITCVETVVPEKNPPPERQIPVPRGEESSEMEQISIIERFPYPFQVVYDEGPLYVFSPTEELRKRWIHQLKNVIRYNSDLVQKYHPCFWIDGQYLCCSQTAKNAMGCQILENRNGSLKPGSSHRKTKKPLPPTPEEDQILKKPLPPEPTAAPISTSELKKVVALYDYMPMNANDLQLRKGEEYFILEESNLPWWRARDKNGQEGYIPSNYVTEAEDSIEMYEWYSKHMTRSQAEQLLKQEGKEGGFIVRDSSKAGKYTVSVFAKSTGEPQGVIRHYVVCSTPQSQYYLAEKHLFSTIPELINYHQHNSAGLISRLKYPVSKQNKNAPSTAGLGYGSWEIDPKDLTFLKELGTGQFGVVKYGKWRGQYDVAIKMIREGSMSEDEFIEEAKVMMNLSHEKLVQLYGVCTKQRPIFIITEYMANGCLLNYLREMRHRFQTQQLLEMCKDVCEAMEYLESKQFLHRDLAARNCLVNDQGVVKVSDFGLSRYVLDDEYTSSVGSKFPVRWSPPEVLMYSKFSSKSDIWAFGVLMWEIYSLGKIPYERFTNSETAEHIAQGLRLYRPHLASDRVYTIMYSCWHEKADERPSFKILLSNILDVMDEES", "experiment": "BTK occupancy ex vivo immunoassay (biotinylated BTK probe) in tissues after oral dosing", "description": "(§1) The in vivo PD effects of an irreversible BTK inhibitor like compound (I) are determined by the extent and duration of covalent BTK occupancy by the inhibitor. BTK occupancy after treatment with Compound of Formula (I) (also referenced to as Compound (I)) was measured in an ex vivo immunoassay. The fraction of unoccupied BTK protein was assayed after in vitro incubation with a covalent biotinylated BTK probe, since compound (I) and the probe bind to BTK in a mutually exclusive manner. Unoccupied BTK, as well as total BTK relative protein levels were determined in lysates of selected tissues and levels of unoccupied BTK were normalized to total BTK protein levels in the same samples.\n(§2) From the experimental data it was apparent that a short transient systemic exposure of compound (I) is sufficient to achieve full BTK occupancy in several tissues at low oral doses of 1-3 mg/kg. […] This very low and transient systemic exposure is consistent with the PK/PD model typical of irreversible inhibitors.\n(§3) The duration of BTK occupancy was determined in rats and mice after single oral dose of compound (I) for spleen, blood, lymph nodes and lung. […] The longer persistence of BTK occupancy in blood has been reported before (Advani et al 2013, J Clin Onc; 31(1):88-94)."}, "BTK [2]": {"test_system": "BTK", "experiment": "BTK occupancy ex vivo immunoassay (biotinylated BTK probe) in tissues after oral dosing", "parameters": "species or system rat", "settings": "spleen of rodents", "description": "as §1, §2, §3"}}, "data": [{"smiles": "C=CC(=O)N(C)CCOc1c(N)ncnc1-c1cc(F)cc(NC(=O)c2ccc(C3CC3)cc2F)c1C", "note": "[Compound of Formula (I), N-(3-(6-Amino-5-(2-(N-methylacrylamido)ethoxy)pyrimidin-4-yl)-5-fluoro-2-methylphenyl)-4-cyclopropyl-2-fluorobenzamide]", "values": [{"measurement": "BTK occupancy in blood", "setting": "BTK [1]; female rats, single oral dose", "value": "consistent with those observed in spleen"}, {"measurement": "spleen BTK occupancy", "setting": "BTK [1]; female rats, single oral dose 3 mg/kg", "value": "full"}, {"measurement": "receptor occupancy at 0.3 mg/kg", "setting": "BTK [1]; rat, female rats, single oral dose 0.3 mg/kg, read-out: spleen BTK occupancy", "value": 30, "unit": "%"}, {"measurement": "receptor occupancy at 1 mg/kg", "setting": "BTK [1]; rat, female rats, single oral dose 1 mg/kg, read-out: spleen BTK occupancy", "value": "76 to 81", "unit": "%"}, {"measurement": "BTK occupancy half-life in blood", "setting": "BTK [1]; rats, single oral dose", "value": "approximately 87 hours"}, {"measurement": "BTK occupancy half-life in spleen", "setting": "BTK [1]; rats, single oral dose", "value": "approximately 5 hours"}, {"measurement": "BTK turnover in tissue (spleen)", "setting": "BTK [2]", "value": "approximately 5 hours"}]}]}
